For 16 molecules, DC50 results are on record in patent publication US20260028354A1, “TETRAHYDRONAPHTHALENE DERIVATIVES AS ESTROGEN RECEPTOR DEGRADERS” (REGENT OF THE UNIVERSITY OF MICHIGAN, priority 2022, published 2026).

Bounds are passed on as bounds.

ER, sequence (P03372 whole entry): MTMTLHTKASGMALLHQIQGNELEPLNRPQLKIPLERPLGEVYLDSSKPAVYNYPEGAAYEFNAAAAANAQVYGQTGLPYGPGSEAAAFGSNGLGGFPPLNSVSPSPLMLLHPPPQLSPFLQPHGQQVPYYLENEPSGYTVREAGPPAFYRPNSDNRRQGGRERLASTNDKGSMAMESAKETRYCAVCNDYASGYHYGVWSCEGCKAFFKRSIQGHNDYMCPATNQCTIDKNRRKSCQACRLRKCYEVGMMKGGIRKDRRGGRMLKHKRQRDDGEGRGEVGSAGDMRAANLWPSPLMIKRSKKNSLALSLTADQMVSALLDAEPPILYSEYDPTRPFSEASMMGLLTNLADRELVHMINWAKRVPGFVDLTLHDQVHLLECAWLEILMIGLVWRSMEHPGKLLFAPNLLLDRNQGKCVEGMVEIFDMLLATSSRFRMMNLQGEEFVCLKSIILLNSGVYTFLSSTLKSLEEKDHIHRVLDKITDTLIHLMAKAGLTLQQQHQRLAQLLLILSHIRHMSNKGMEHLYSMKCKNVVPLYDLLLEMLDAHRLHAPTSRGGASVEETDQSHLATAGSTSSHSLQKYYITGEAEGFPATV

This test addresses ER (Homo sapiens (Human), UniProt P03372). Nature of the test: In-cell western blot analysis of ER for "B" compounds. The class given is cell-based. The settings on record: 16 hours, read-out: ICW DC50. The method, then:
R^T 2h, gentle shaking. Negative control: cells plus secondary antibodies (no primary antibodies); e, wash x 4 with PBS+0.05-0.1% Tween 20, gentel shaking; f, anti-rabbit-680 and anti-mouse-800 (both 1:1000 in LiCor block+0.05% Tween20, R^T 1h, gentle shaking, no light. LI-COR: 0.2% to reduce background; g, wash×4 with PBS+0.05% Tween 20, gental shaking; h, add 100 μL or 25 μL of PBS to each well and read on CLX plate reader. The relative ER percentage in treated cells were obtained by comparing the values of treated wells to those in untreated and DMSO-treated wells as 100%.
As to `O=C1CC[C@H](N2Cc3cc4c(cc3C2=O)OC[C@@H]2CN(C[C@H]3CC[C@@H](Nc5ccc([C@@H]6c7ccc(O)cc7CC[C@@H]6c6ccccc6)cc5)CC3)CCN42)C(=O)N1` [Compound B354, (S)-3-((S)-3-(((1R,4S)-4-((4-((1R,2S)-6-hydroxy-2-phenyl-1,2,3,4-tetrahydronaphthalen-1-yl)phenyl)amino)cyclohexyl)methyl)-8-oxo-1,2,3,4,4a,5,8,10-octahydro-9H-pyrazino[1′,2′:4,5][1,4]oxazino[2,3-f]isoindol-9-yl)piperidine-2,6-dione], the DC50 lay within 10 to 100 nM.

Take `O=C1CCC(Nc2ccc(C3CCN(CC4CC5(CCN(c6ccc([C@@H]7c8ccc(O)cc8CC[C@@H]7c7ccccc7)cc6)CC5)C4)CC3)cc2F)C(=O)N1` (stereo partly drawn) [Compound B379, 3-((2-fluoro-4-(1-((7-(4-((1R,2S)-6-hydroxy-2-phenyl-1,2,3,4-tetrahydronaphthalen-1-yl)phenyl)-7-azaspiro[3.5]nonan-2-yl)methyl)piperidin-4-yl)phenyl)amino)piperidine-2,6-dione]: the DC50 is above 100 nM.

`O=C1CCC(N2Cc3cc4c(cc3C2=O)OC[C@@H]2CN(CC3CC5CN(c6ccc([C@@H]7c8ccc(O)cc8CC[C@@H]7c7ccccc7)cc6)CC5C3)CCN42)C(=O)N1` (mixture of isomers) [Compound B321, 3-((4aS)-3-(((3aRS,6aSR)-2-(4-((1R,2S)-6-hydroxy-2-phenyl-1,2,3,4-tetrahydronaphthalen-1-yl)phenyl)octahydrocyclopenta[c]pyrrol-5-yl)methyl)-8-oxo-1,2,3,4,4a,5,8,10-octahydro-9H-pyrazino[1′,2′:4,5][1,4]oxazino[2,3-f]isoindol-9-yl)piperidine-2,6-dione]: the DC50 was above 100 nM.

For `O=C1CCC(Nc2ccc(N3CCN(CC4CCN(c5ccc([C@@H]6c7ccc(O)cc7CC[C@@H]6c6ccccc6)cc5)CC4)CC3)c(F)c2)C(=O)N1` (stereo partly drawn) [Compound B380, 3-((3-fluoro-4-(4-((1-(4-((1R,2S)-6-hydroxy-2-phenyl-1,2,3,4-tetrahydronaphthalen-1-yl)phenyl)piperidin-4-yl)methyl)piperazin-1-yl)phenyl)amino)piperidine-2,6-dione], the DC50 was above 100 nM.

Consider `O=C1CCC(N2Cc3cc4c(cc3C2=O)OC[C@@H]2CN(C(=O)CN3CCC5(CC3)CN(c3ccc([C@@H]6c7ccc(O)cc7CC[C@@H]6c6ccccc6)cc3)C5)CCN42)C(=O)N1` (stereo partly drawn) [Compound B161, 3-((S)-3-(2-(2-(4-((1R,2S)-6-hydroxy-2-phenyl-1,2,3,4-tetrahydronaphthalen-1-yl)phenyl)-2,7-diazaspiro[3.5]nonan-7-yl)acetyl)-8-oxo-1,2,3,4,4a,5,8,10-octahydro-9H-pyrazino[1′,2′:4,5][1,4]oxazino[2,3-f]isoindol-9-yl)piperidine-2,6-dione], for which the DC50 was below 10 nM.

Turning to `O=C1CC[C@H](N2Cc3cc4c(cc3C2=O)OC[C@@H]2CN(CC3CCC5(CN(c6ccc([C@@H]7c8ccc(O)cc8CC[C@@H]7c7ccccc7)cc6)C5)OC3)CCN42)C(=O)N1` (stereo partly drawn) [Compound B349, (3S)-3-((4aS)-3-((2-(4-((1R,2S)-6-hydroxy-2-phenyl-1,2,3,4-tetrahydronaphthalen-1-yl)phenyl)-5-oxa-2-azaspiro[3.5]nonan-7-yl)methyl)-8-oxo-1,2,3,4,4a,5,8,10-octahydro-9H-pyrazino[1′,2′:4,5][1,4]oxazino[2,3-f]isoindol-9-yl)piperidine-2,6-dione], the DC50 lay within 10 to 100 nM.

For `CN1C[C@@H]2CN(C(=O)CN3CC4(CCN(c5ccc([C@@H]6c7ccc(O)cc7CC[C@@H]6c6ccccc6)cc5)CC4)C3)CCN2c2cc3c(cc21)C(=O)N(C1CCC(=O)NC1=O)C3` (stereo partly drawn) [Compound B162, 3-((R)-3-(2-(7-(4-((1R,2S)-6-hydroxy-2-phenyl-1,2,3,4-tetrahydronaphthalen-1-yl)phenyl)-2,7-diazaspiro[3.5]nonan-2-yl)acetyl)-6-methyl-8-oxo-2,3,4,4a,5,6,8,10-octahydropyrazino[1,2-a]pyrrolo[3,4-g]quinoxalin-9(1H)-yl)piperidine-2,6-dione], the DC50 lay within 10 to 100 nM.

For the molecule `O=C1CCC(N2Cc3cc4c(cc3C2=O)OC[C@@H]2CN(CC(=O)N3C[C@@H]5CN(c6ccc([C@@H]7c8ccc(O)cc8CC[C@@H]7c7ccccc7)cc6)C[C@@H]5C3)CCN42)C(=O)N1` (stereo partly drawn) [Compound B156, 3-((S)-3-(2-((3aR,6aS)-5-(4-((1R,2S)-6-hydroxy-2-phenyl-1,2,3,4-tetrahydronaphthalen-1-yl)phenyl)hexahydropyrrolo[3,4-c]pyrrol-2(1H)-yl)-2-oxoethyl)-8-oxo-1,2,3,4,4a,5,8,10-octahydro-9H-pyrazino[1′,2′:4,5][1,4]oxazino[2,3-f]isoindol-9-yl)piperidine-2,6-dione], the DC50 is above 100 nM.

Consider `O=C1CCC(N2Cc3cc4c(cc3C2=O)OC[C@@H]2CN(C(=O)CN3CCC5(CC3)CCN(c3ccc([C@@H]6c7ccc(O)cc7CC[C@@H]6c6ccccc6)cn3)CC5)CCN42)C(=O)N1` (stereo partly drawn) [Compound B158, 3-((S)-3-(2-(9-(5-((1S,2S)-6-hydroxy-2-phenyl-1,2,3,4-tetrahydronaphthalen-1-yl)pyridin-2-yl)-3,9-diazaspiro[5.5]undecan-3-yl)acetyl)-8-oxo-1,2,3,4,4a,5,8,10-octahydro-9H-pyrazino[1′,2′:4,5][1,4]oxazino[2,3-f]isoindol-9-yl)piperidine-2,6-dione], for which the DC50 fell in the range of 10 to 100 nM.

For `O=C1CCC(N2Cc3c(ccc4c3OCC43CCN(C(=O)CN4CCC5(C4)CN(c4ccc([C@@H]6c7ccc(O)cc7CC[C@@H]6c6ccccc6)cc4)C5)CC3)C2=O)C(=O)N1` (stereo partly drawn) [Compound B169, 3-(1′-(2-(2-(4-((1R,2S)-6-hydroxy-2-phenyl-1,2,3,4-tetrahydronaphthalen-1-yl)phenyl)-2,6-diazaspiro[3.4]octan-6-yl)acetyl)-6-oxo-6,8-dihydro-2H,7H-spiro[furo[2,3-e]isoindole-3,4′-piperidin]-7-yl)piperidine-2,6-dione], the DC50 is below 10 nM.

As for `O=C1CC[C@H](N2Cc3c(ccc4c3OC[C@H]3CN(C[C@H]5CC[C@H](Nc6ccc([C@@H]7c8ccc(O)cc8CC[C@@H]7c7ccccc7)cc6)CC5)CCN43)C2=O)C(=O)N1` [Compound B353, (S)-3-((R)-7-(((1R,4R)-4-((4-((1R,2S)-6-hydroxy-2-phenyl-1,2,3,4-tetrahydronaphthalen-1-yl)phenyl)amino)cyclohexyl)methyl)-1-oxo-1,3,5,5a,6,7,8,9-octahydro-2H-pyrazino[1′,2′:4,5][1,4]oxazino[2,3-e]isoindol-2-yl)piperidine-2,6-dione], the DC50 was in the range of 10 to 100 nM.

Regarding `O=C1CCC(Nc2ccc(N3CCN(CC4CCC5(CCN(c6ccc([C@@H]7c8ccc(O)cc8CC[C@@H]7c7ccccc7)cc6)CC5)OC4)CC3)c(F)c2)C(=O)N1` (stereo partly drawn) [Compound B382, 3-((3-fluoro-4-(4-((9-(4-((1R,2S)-6-hydroxy-2-phenyl-1,2,3,4-tetrahydronaphthalen-1-yl)phenyl)-1-oxa-9-azaspiro[5.5]undecan-3-yl)methyl)piperazin-1-yl)phenyl)amino)piperidine-2,6-dione], the DC50 was above 100 nM.

With `O=C1CCC(N2Cc3c(ccc4c3OC[C@H]3CN(C[C@H]5CC[C@H](Nc6ccc([C@@H]7c8ccc(O)cc8CC[C@@H]7c7ccccc7)cc6)CC5)CCN43)C2=O)C(=O)N1` (stereo partly drawn) [Compound B322, 3-((R)-7-(((1R,4R)-4-((4-((1R,2S)-6-hydroxy-2-phenyl-1,2,3,4-tetrahydronaphthalen-1-yl)phenyl)amino)cyclohexyl)methyl)-1-oxo-1,3,5,5a,6,7,8,9-octahydro-2H-pyrazino[1′,2′:4,5][1,4]oxazino[2,3-e]isoindol-2-yl)piperidine-2,6-dione], the DC50 was below 10 nM.

In the case of `O=C1CC[C@H](N2Cc3c(ccc4c3OC[C@H]3CN(CC5CCC6(CN(c7ccc([C@@H]8c9ccc(O)cc9CC[C@@H]8c8ccccc8)cc7)C6)OC5)CCN43)C2=O)C(=O)N1` (stereo partly drawn) [Compound B348, (3S)-3-((5aR)-7-((2-(4-((1R,2S)-6-hydroxy-2-phenyl-1,2,3,4-tetrahydronaphthalen-1-yl)phenyl)-5-oxa-2-azaspiro[3.5]nonan-7-yl)methyl)-1-oxo-1,3,5,5a,6,7,8,9-octahydro-2H-pyrazino[1′,2′:4,5][1,4]oxazino[2,3-e]isoindol-2-yl)piperidine-2,6-dione], the DC50 was below 10 nM.

`O=C1CCC(Nc2ccc(N3CCN(CC4CC5(CCN(c6ccc([C@@H]7c8ccc(O)cc8CC[C@@H]7c7ccccc7)cc6)CC5)C4)CC3)c(F)c2)C(=O)N1` (stereo partly drawn) [Compound B381, 3-((3-fluoro-4-(4-((7-(4-((1R,2S)-6-hydroxy-2-phenyl-1,2,3,4-tetrahydronaphthalen-1-yl)phenyl)-7-azaspiro[3.5]nonan-2-yl)methyl)piperazin-1-yl)phenyl)amino)piperidine-2,6-dione]: the DC50 is above 100 nM.

Turning to `CN(CC1CC2(CCN(c3ccc([C@@H]4c5ccc(O)cc5CC[C@@H]4c4ccccc4)cc3)CC2)C1)[C@H]1C[C@H]2COc3cc4c(cc3N2C1)C(=O)N(C1CCC(=O)NC1=O)C4=O` (stereo partly drawn) [Compound B331, (2S,3aS)-8-(2,6-dioxopiperidin-3-yl)-2-(((7-(4-((1R,2S)-6-hydroxy-2-phenyl-1,2,3,4-tetrahydronaphthalen-1-yl)phenyl)-7-azaspiro[3.5]nonan-2-yl)methyl)(methyl)amino)-2,3,3a,4-tetrahydro-1H,7H-pyrrolo[1′,2′:4,5][1,4]oxazino[2,3-f]isoindole-7,9(8H)-dione], the DC50 is above 100 nM.
